The results in this text go back to ChEMBL document CHEMBL3817770, “Design and synthesis of 5-aminolaevulinic acid/3-hydroxypyridinone conjugates for photodynamic therapy: enhancement of protoporphyrin IX production and photo-toxicity in tumor cells” (Medchemcomm, 2016).

Data set [1] relates to LNCaP. Kind of data set: Dark toxicity in human LNCAP cells at 200 uM after 4 hrs by MTT assay. The data set is classed as cell-based. In general terms: Tetrazolium assays rely on reduction of a dye to a coloured formazan, in cell work by metabolically active cells.
Data set [2] relates to A549. Nature of the data set: Phototoxicity in human A549 cells assessed as cell survival at 100 uM incubated for 4 hrs followed by irradiation with blue light for 5 mins by MTT assay. It counts as functional.
In data set [3] the test system is LNCaP. Nature of the data set: Increase in protoporphyrin 9 levels in human LNCAP cells at 200 uM after 3 to 24 hrs by fluorescence spectrometer plate reader method. It counts as functional, cell-based.
Data set [4] deals with MCF7. Kind of data set: Dark toxicity in human MCF7 cells at 200 uM after 4 hrs by MTT assay. Conditions: mcf7, 4 h. The data set is classed as cell-based.
Data set [5] deals with MCF7. Nature of the data set: Phototoxicity in human MCF7 cells assessed as cell survival at 100 uM incubated for 4 hrs followed by irradiation with blue light for 5 mins by MTT assay. It counts as functional.
Data set [6] has as its system KB. Kind of data set: Increase in protoporphyrin 9 levels in human KB cells at 100 uM after 24 hrs by fluorescence spectrometer plate reader method relative to ALA. It counts as functional.
A short description of data set [7]: Increase in protoporphyrin 9 levels in human BPH1 cells at 200 uM after 3 to 24 hrs by fluorescence spectrometer plate reader method. The data set is classed as ADME, cell-based. Conditions: bph-1, 200 µM.
Data set [8] deals with LNCaP. Kind of data set: Phototoxicity in human LNCAP cells assessed as cell survival at 100 uM incubated for 4 hrs followed by irradiation with blue light for 5 mins by MTT assay. It counts as functional.
Data set [9] relates to KB. Kind of data set: Increase in protoporphyrin 9 levels in human KB cells at 200 uM after 3 to 24 hrs by fluorescence spectrometer plate reader method. The data set is classed as functional, cell-based.
For data set [10], the system named is LNCaP. Kind of data set: Increase in protoporphyrin 9 levels in human LNCAP cells at 100 uM after 24 hrs by fluorescence spectrometer plate reader method relative to ALA. The data set is classed as functional.
Data set [11] deals with LNCaP. Nature of the data set: Phototoxicity in human LNCAP cells assessed as cell survival at 200 uM incubated for 4 hrs followed by irradiation with blue light for 5 mins by MTT assay. The data set is classed as functional.
A short description of data set [12]: Increase in protoporphyrin 9 levels in human BPH1 cells at 100 uM after 24 hrs by fluorescence spectrometer plate reader method relative to ALA. Conditions: bph-1, 24 h. The data set is classed as ADME, cell-based.
The test system of data set [13] is A549. Nature of the data set: Dark toxicity in human A549 cells at 200 uM after 4 hrs by MTT assay. It counts as cell-based. Conditions: a549, 4 h.
For data set [14], the system named is A549. Kind of data set: Increase in protoporphyrin 9 levels in human A549 cells at 200 uM after 3 to 24 hrs by fluorescence spectrometer plate reader method. The data set is classed as functional, cell-based.
The subject of data set [15] is A549. Nature of the data set: Phototoxicity in human A549 cells assessed as cell survival at 200 uM incubated for 4 hrs followed by irradiation with blue light for 5 mins by MTT assay. The data set is classed as functional.
Data set [16] concerns KB. Kind of data set: Phototoxicity in human KB cells assessed as cell survival at 200 uM incubated for 4 hrs followed by irradiation with blue light for 5 mins by MTT assay. The data set is classed as functional.
Data set [17] in a line: Dark toxicity in human BPH1 cells at 200 uM after 4 hrs by MTT assay. It counts as cell-based. The following applies: bph-1, 4 h.
A short description of data set [18]: Phototoxicity in human BPH1 cells assessed as cell survival at 200 uM incubated for 4 hrs followed by irradiation with blue light for 5 mins by MTT assay. It counts as cell-based, BPH-1. Conditions: bph-1, 4 h, 200 µM.
The test system of data set [19] is A549. Kind of data set: Increase in protoporphyrin 9 levels in human A549 cells at 100 uM after 24 hrs by fluorescence spectrometer plate reader method relative to ALA. It counts as functional.

Molecules are shown by their SMILES. Activity calls are given as the source filed them. The calls are words filed in the database; no cut-off is given here.

As to `CCCCn1ccc(=O)c(O)c1C(=O)N[C@@H](CC(C)C)C(=O)NCC(=O)CCC(=O)OC`, the Activity result in data set [1], in data set [4], in data set [7], in data set [12], in [13] and in [17] was “Non-toxic” throughout. Also, in data set [18], the Activity entry is “Non-toxic”. Moreover, the result in [2], in data set [3], in [5], in [6], in [8] and in data set [9] was inactive. Also, the outcome in data set [10], in [11], in data set [14], in data set [15], in data set [16] and in data set [19] was inactive.

Consider `CCCCn1ccc(=O)c(O)c1C(=O)N[C@@H](Cc1ccccc1)C(=O)NCC(=O)CCC(=O)OC`, for which the Activity result in data set [1], in [4], in data set [7], in [12], in data set [13] and in data set [17] was “Non-toxic” in each case. Further, in data set [18], the Activity entry is recorded as “Non-toxic”. Moreover, the outcome in [2], in data set [3], in [5], in data set [6], in data set [8] and in data set [9] was inactive. In addition, the outcome in data set [10], in data set [11], in data set [14], in [15], in data set [16] and in data set [19] was inactive.

With `COCCn1ccc(=O)c(O)c1C(=O)N[C@@H](CC(C)C)C(=O)NCC(=O)CCC(=O)OC`, the Activity result in data set [1], in data set [4], in [7], in data set [12], in data set [13] and in data set [17] was “Non-toxic” throughout. The Activity result in data set [18] is “Non-toxic”. Moreover, the outcome in data set [2], in data set [3], in data set [5], in data set [6], in data set [8] and in data set [9] was inactive. The outcome in [10], in data set [11], in [14], in data set [15], in data set [16] and in data set [19] was inactive.

In the case of `CCn1ccc(=O)c(O)c1C(=O)N[C@@H](Cc1ccccc1)C(=O)NCC(=O)CCC(=O)OC`, the Activity entry in data set [1], in [4], in data set [7], in data set [12], in data set [13] and in data set [17] was “Non-toxic” in each case. The Activity entry in [18] was “Non-toxic”. The result in data set [2], in data set [3], in data set [5], in [6], in data set [8] and in data set [9] was inactive. Moreover, the result in [10], in data set [11], in [14], in [15], in data set [16] and in data set [19] was inactive.

Consider `CCCCCCn1ccc(=O)c(O)c1C(=O)N[C@@H](CC(C)C)C(=O)NCC(=O)CCC(=O)OC`, for which the Activity entry in data set [1], in data set [4], in data set [7], in [12], in [13] and in data set [17] was “Non-toxic” throughout. The Activity result in [18] was “Non-toxic”. The result in data set [2], in data set [3], in [5], in data set [6], in data set [8] and in [9] was inactive. The result in data set [10], in [11], in data set [14], in data set [15], in data set [16] and in [19] was inactive.

In the case of `COC(=O)CCC(=O)CNC(=O)[C@H](CC(C)C)NC(=O)c1c(O)c(=O)ccn1C`, the Activity entry in data set [1], in data set [4], in data set [7], in data set [12], in data set [13] and in data set [17] was “Non-toxic” in each case. Besides, in data set [18], the Activity entry is given as “Non-toxic”. In addition, the result in [2], in data set [3], in data set [5], in data set [6], in data set [8] and in [9] was inactive. In addition, the outcome in data set [10], in data set [11], in [14], in data set [15], in data set [16] and in [19] was inactive.

`COCCn1ccc(=O)c(O)c1C(=O)N[C@@H](Cc1ccccc1)C(=O)NCC(=O)CCC(=O)OC`: the Activity entry in data set [1], in data set [4], in [7], in data set [12], in data set [13] and in data set [17] was “Non-toxic” each time. In data set [18], the Activity result is “Non-toxic”. Moreover, the result in [2], in data set [3], in [5], in data set [6], in data set [8] and in [9] was inactive. Moreover, the outcome in data set [10], in data set [11], in [14], in [15], in data set [16] and in data set [19] was inactive.
